The values below come from the NIST ThermoML archive (doi:10.1016/j.jct.2016.07.038).

Broadly, the mass density is mass per unit of volume.

± gives the expanded uncertainty stated by the source.

A short description of data set [1]: molar heat capacity at constant pressure. The note with it: 298.15 K; 101.33 kPa; Crystal; Small sample (50 mg) DSC.
The conditions of data set [2]: Crystal; for Normal melting temperature: DTA.
The nature of data set [3]: Molar enthalpy of transition or fusion. The note with it: Crystal; DSC.

For the compound `O=C1NCCO1` [2-oxazolidone], the “molar heat capacity at constant pressure” value in data set [1] worked out at 113.8 ± 3.5 J/K/mol. Further, the Normal melting temperature in data set [2] worked out at 90 ± 0.4 °C. In data set [3], the “Molar enthalpy of transition or fusion” value stood at 3.89 ± 0.139 kcal/mol.

As for `CC(=O)N1CCOC1=O` [3-acetyl-2-oxazolidinone], the “molar heat capacity at constant pressure” value in data set [1] turned out to be 164.7 ± 3.5 J/K/mol. For the same compound, the mass density in data set [2] (298.15 K, 101.33 kPa, measuring the mass and volume of a pellet of the compound) came to 1230 ± 60 kg/m3. Further, the Normal melting temperature in data set [2] was found to be 69.8 ± 0.6 °C. In data set [3], the “Molar enthalpy of transition or fusion” value was found to be 3.67 ± 0.124 kcal/mol.
